In publication PMC9151520 (Archives of Toxicology, 2022):
pEC50: −log10 of the molar value. Where “and” joins values, the source holds several entries; their conditions need not be identical. Equal values may be shown once. Read-outs that look alike come from different tables or passages of the source.

What was measured:
[1] = test system: p53 signaling (p53RE-bla HCT-116 cells); experiment: cells; type: cell-based
[2] = test system: p53 signaling (p53RE-bla HCT-116 cells)
[3] = test system: p53 signaling (p53RE-bla HCT-116 cells); remark: listed apart in the source
[4] = Homo sapiens, HCT-116, read-out: p53 activation EC50, cherry pick confirmation
[5] = Homo sapiens, HCT-116, read-out: p53 activation EC50, primary screening
[6] = Homo sapiens, HCT-116, read-out: p53 activation efficacy, cherry pick confirmation
[7] = Homo sapiens, HCT-116, read-out: p53 activation efficacy, primary screening

Structure (SMILES)	pEC50 [1, 4]	pEC50 [1, 5]	Emax [1, 6] [%]	Emax [1, 7] [%]	p53 activation EC50, cherry pick confirmation [2]	p53 activation EC50, primary screening [2]	p53 activation efficacy, cherry pick confirmation [2]	p53 activation efficacy, primary screening [2]	p53 activation EC50, cherry pick confirmation [3]	p53 activation EC50, primary screening [3]	p53 activation efficacy, cherry pick confirmation [3]	p53 activation efficacy, primary screening [3]	Viability EC50, cherry pick confirmation (p53RE-bla HCT-116 cells)	Viability EC50, primary screening (p53RE-bla HCT-116 cells)	Viability efficacy, cherry pick confirmation (p53RE-bla HCT-116 cells)	Viability efficacy, primary screening (p53RE-bla HCT-116 cells)	also measured
COc1c(C)c2c(c(O)c1C/C=C(\C)CCC(=O)O)C(=O)OC2 [Mycophenolic acid]	6.77	6.76	58.4	42.7	inactive	inactive	inactive	inactive	inactive	inactive	inactive	inactive	inactive	inactive	inactive	inactive	
O=[Se](O)O [Selenious acid]																	EC50, p53 activation, cherry pick confirmation [1]: inactive; Efficacy, p53 activation, cherry pick confirmation [1]: inactive; Efficacy, p53 activation, primary screening [1]: 32.672; pEC50 ([1]; read-out: EC50, p53 activation, primary screening): 4.35; EC50, p53 activation, cherry pick confirmation [2]: inactive; EC50, p53 activation, primary screening [2]: inactive; Efficacy, p53 activation, cherry pick confirmation [2]: inactive; Efficacy, p53 activation, primary screening [2]: inactive; EC50, p53 activation, cherry pick confirmation [3]: inactive; EC50, p53 activation, primary screening [3]: inactive; Efficacy, p53 activation, cherry pick confirmation [3]: inactive; Efficacy, p53 activation, primary screening [3]: inactive; EC50, viability, cherry pick confirmation (p53RE-bla HCT-116 cells): inactive; EC50, viability, primary screening (p53RE-bla HCT-116 cells): inactive; pEC50 (p53RE-bla HCT-116 cells; read-out: EC50, viability, cherry pick confirmation): 4.59; pEC50 (p53RE-bla HCT-116 cells; read-out: EC50, viability, primary screening): 4.37
CN1CCC(Nc2ncc3ncnc(Nc4ccc(F)c(Cl)c4)c3n2)CC1.Cl.Cl [Falnidamol dihydrochloride]																	pEC50 ([1]; read-out: p53 activation EC50, No MS): 4.78 and 4.89; pEC50 ([2]; read-out: p53 activation EC50, RLM): 4.76 and 5.05; p53 activation EC50, HLM [3]: inactive; pEC50 ([3]; read-out: p53 activation EC50, HLM): 4.85; Viability EC50, HLM (p53RE-bla HCT-116 cells): inactive; Viability EC50, No MS (p53RE-bla HCT-116 cells): inactive; Viability EC50, RLM (p53RE-bla HCT-116 cells): inactive; Viability Efficacy, HLM (p53RE-bla HCT-116 cells): inactive; Viability Efficacy, No MS (p53RE-bla HCT-116 cells): inactive; Viability Efficacy, RLM (p53RE-bla HCT-116 cells): inactive
CC[n+]1c(-c2ccccc2)c2cc(N)ccc2c2ccc(N)cc21 [Ethidium bromide]	5.27	5.35	176	182	inactive	inactive	inactive	inactive	inactive	inactive	inactive	inactive	inactive	inactive	inactive	inactive	
